From patent US9120749B2, “Quinoline derivatives and MELK inhibitors containing the same” (ONCOTHERAPY SCIENCE, INC., priority 2010, dated 2015)
Counter-ions that a name gives are not always drawn.

Key:
A549 cells = assay: Cell-based assay: anti-proliferative activity, Cell Counting Kit-8, 72 hours (A549); details: Homo sapiens, A549, 72 h, MELK-expressing, Cell Counting Kit-8 at 72 hours
In short: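 A549 cells were seeded in 96-well plates and exposed to candidate inhibitors for 72 hours. Cell growth was then measured with Cell Counting Kit-8, and IC50 values were calculated from the resulting growth data.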

HT-1197 cells = assay: Cell-based assay: anti-proliferative activity, Cell Counting Kit-8, 72 hours (HT-1197, negative control without MELK expression); details: Homo sapiens, HT1197, 72 h, HT1197 cells, no MELK expression (negative control); Cell Counting Kit-8 at 72 hours
In short: (§1)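 First, lysates underwent western blotting with anti-MELK antibody to establish expression. Next, cells went into 96-well plates. Then candidate inhibitors were added. Finally, viability was determined by CCK-8 at 72 h and IC50 computed.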

BT-549 cells = assay: Cell-based assay: anti-proliferative activity, Cell Counting Kit-8, 72 hours (BT-549); details: Homo sapiens, BT-549, 72 h, BT549 cells, MELK-expressing; Cell Counting Kit-8 at 72 hours
Description: To evaluate the expression status of MELK in several cell lines, western blot analysis was performed using crude cell lysate collected from those cells. Anti-MELK antibody (clone 31, BD Biosciences) was used to visualize the expression.
Active candidate inhibitors against MELK were evaluated for their target-specific cytotoxicity using T47D, A549, BT-549, and HT-1197 cells was used for negative control. 100 micro-L of cell suspension was seeded onto 96-well microtiter plate (ViewPlate-96FTC, PerkinElmer). The initial cell concentration of T47D, A549, BT-549, and HT-1197 were 3,000 cells/well, 2,000 cells/well and 2,500 cells/well, respectively. Cellular growth was determined using Cell Counting Kit-8 (DOJINDO) at 72 hours after the exposure of the candidate inhibitors. […] Accurate IC50 values were calculated as described previously.

T47D cells = assay: Cell-based assay: anti-proliferative activity, Cell Counting Kit-8, 72 hours (T47D); details: Homo sapiens, T47D, 72 h, MELK-expressing, Cell Counting Kit-8 at 72 hours
In short: as §1

MELK = MELK (Homo sapiens, UniProt Q14680); assay: Kinase assay: MELK activity, phosphorylation of FITC-labeled histone H3 peptide measured by IMAP fluorescence polarization; format: biochemical; details: 50 micro-M ATP, FITC-labeled histone H3 peptide substrate, IMAP fluorescence polarization; read-out: IC50 (μM) (kinase assay)
In short: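 Kinase reactions ran with or without test compound (final DMSO 1%) on a fluorescein-tagged H3 peptide. Progressive binding solution was added to terminate them. After a half-hour room-temperature incubation, polarization was measured.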

MELK, sequence (Q14680 whole entry, looked up): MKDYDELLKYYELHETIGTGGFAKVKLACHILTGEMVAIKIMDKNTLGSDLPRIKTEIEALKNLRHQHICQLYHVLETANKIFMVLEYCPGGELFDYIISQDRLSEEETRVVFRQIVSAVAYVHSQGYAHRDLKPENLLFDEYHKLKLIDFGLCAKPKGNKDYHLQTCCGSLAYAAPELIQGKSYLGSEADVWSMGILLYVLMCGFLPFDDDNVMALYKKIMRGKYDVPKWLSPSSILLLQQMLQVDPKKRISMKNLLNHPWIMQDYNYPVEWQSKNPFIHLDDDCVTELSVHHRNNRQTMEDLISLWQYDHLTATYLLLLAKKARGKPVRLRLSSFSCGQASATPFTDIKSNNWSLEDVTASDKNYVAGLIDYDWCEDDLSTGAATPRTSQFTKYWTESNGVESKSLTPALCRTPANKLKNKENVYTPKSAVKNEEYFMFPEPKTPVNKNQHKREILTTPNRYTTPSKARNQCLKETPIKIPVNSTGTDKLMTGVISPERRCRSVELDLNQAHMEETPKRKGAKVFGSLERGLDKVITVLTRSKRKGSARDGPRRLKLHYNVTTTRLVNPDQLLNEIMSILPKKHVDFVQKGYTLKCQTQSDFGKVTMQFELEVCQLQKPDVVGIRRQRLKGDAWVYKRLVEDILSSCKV

SMILES | IC50 (A549 cells) | IC50 (HT-1197 cells) | IC50 (BT-549 cells) | IC50 (T47D cells) | IC50 (MELK)
CCN(CC)[C@H]1CC[C@@H](Nc2c(C(=O)C3CC3)cnc3ccc(-c4cc(Cl)c(O)c(OC)c4)cc23)CC1 [Example 311, {6-(3-Chloro-4-hydroxy-5-methoxyphenyl)-4-[cis-4-(diethylamino)cyclohexylamino]quinolin-3-yl}(cyclopropyl)methanone] | 0.21 µM | 7.6 µM | 1.5 µM | 0.51 µM | 0.0032 µM
COc1cc(-c2ccc3ncc(C(=O)C4CC4)c(N4CCC(CN(C)C)CC4)c3c2)ccc1O [Example 133, Cyclopropyl[4-{4-[(dimethylamino)methyl]piperidin-1-yl}-6-(4-hydroxy-3-methoxyphenyl)quinolin-3-yl]methanone] | 0.79 µM | 1.9 µM | 1.7 µM | 0.7 µM | 0.0036 µM
COc1cc(-c2ccc3ncc(C(=O)CC(C)C)c(N[C@H]4CC[C@H](N)CC4)c3c2)cc(Cl)c1O [Example 262, dihydrochloride] | 0.36 µM | 2.2 µM | 0.91 µM | 0.13 µM | 0.005 µM
O=C(c1cnc2ccc(-c3cc(F)c(O)c(Cl)c3)cc2c1N1CCC(CN2CCCC2)CC1)C1CC1 [Example 283, {6-(3-Chloro-5-fluoro-4-hydroxyphenyl)-4-[4-(pyrrolidin-1-ylmethyl)piperidin-1-yl]quinolin-3-yl}(cyclopropyl)methanone] | 0.54 µM | 3 µM | 0.72 µM | 0.35 µM | 0.0029 µM
CC(C1CCN(c2c(S(C)(=O)=O)cnc3ccc(-c4ccc(O)c(Cl)c4)cc23)CC1)N(C)C (centres unmarked) [Example 246, 2-Chloro-4-[4-{4-[1-(dimethylamino)ethyl]piperidin-1-yl}-3-(methylsulfonyl)quinolin-6-yl]phenol] | 0.35 µM | 1.2 µM | 0.72 µM | 0.18 µM | 0.01 µM
N[C@H]1CC[C@H](Nc2c(C(=O)C3CC3)cnc3ccc(-c4cc(Cl)c(O)c(Cl)c4)cc23)CC1 [Example 157(a), {4-[trans-4-Aminocyclohexylamino]-6-(3,5-dichloro-4-hydroxyphenyl)quinolin-3-yl}(cyclopropyl)methanone] | 0.57 µM | 3.7 µM | 0.33 µM | 0.15 µM | 0.0076 µM
COc1cc(-c2ccc3ncc(C(=O)C4CC4)c(N4CCC(C(C)N(C)C)CC4)c3c2)cc(Cl)c1O (centres unmarked) [Example 250, [6-(3-Chloro-4-hydroxy-5-methoxyphenyl)-4-{4-[1-(dimethylamino)ethyl]piperidin-1-yl}quinolin-3-yl](cyclopropyl)methanone] | 0.11 µM | 1.7 µM | 0.61 µM | 0.16 µM | 0.0013 µM
CC(C)C(=O)c1cnc2ccc(-c3cc(F)c(O)c(F)c3)cc2c1N[C@H]1CC[C@H](N)CC1 [Example 214, 1-{4-[trans-4-Aminocyclohexylamino]-6-(3,5-difluoro-4-hydroxyphenyl)quinolin-3-yl}-2-methylpropan-1-one] | 0.65 µM | 1.4 µM | 0.084 µM | 0.048 µM | 0.043 µM
CCN(CC)C1CCC(Nc2c(C(=O)C3CC3)cnc3ccc(-c4ccc(O)c(Cl)c4)cc23)CC1 (centres unmarked) [Example 192, {6-(3-Chloro-4-hydroxyphenyl)-4-[4-(diethylamino)cyclohexylamino]quinolin-3-yl}(cyclopropyl)methanone] | 0.42 µM | 2.2 µM | 1.3 µM | 0.57 µM | 0.011 µM
CC(=O)c1cnc2ccc(-c3cc(Cl)c(O)c(Cl)c3)cc2c1N[C@H]1CC[C@H](N)CC1 [Example 256, 1-{4-[trans-4-Aminocyclohexylamino]-6-(3,5-dichloro-4-hydroxyphenyl)quinolin-3-yl}ethanone] | 0.44 µM | 100 µM | 0.31 µM | 0.064 µM | 0.0041 µM
